Measurements published in EP1477168A1, “Use of cabergoline in the treatment of restless leg syndrome” (priority 1998, dated 1999).
Counter-ions that a name gives are not always drawn.

Assays:
restless leg syndrome = details: in vivo; cited from earlier work
RLS [1] = details: cited from earlier work
[2] = test system: restless legs syndrome and periodic leg movements in sleep; details: cited from earlier work; for patients who responded: consecutive series of patients
RLS [3] = details: treatment of RLS; quote from www.rls.org, March 1999; cited from earlier work
restless legs syndrome [4] = experiment: 12-week open label pilot trial of cabergoline in RLS patients: polysomnography; format: in vivo
Protocol: In a 12-week open label pilot trial, the effects of a single evening cabergoline-dose on symptoms of RLS were investigated in 9 patients and the results presented here. See also, Stiasny K., Oertel W.H., Schüler P. (1998). Cabergoline in RLS, ENS, Nice, Abstract.
Efficacy was assessed by polysomnography and subjective ratings. All patients previously had experienced partial benefit of a levodopa therapy (either standard or standard and slow release) and in part developed augmentation under levodopa therapy. At study entry all patients were comedicated with domperidone (20 mg TID) and five were still under levodopa therapy (400-800 mg). At the endpoint all patients were on cabergoline monotherapy (mean dose 2.1 mg, range 1 to 4 mg). Domperidone was stopped in all patients due to excellent tolerability. […] Total sleep time was prolonged, sleep latency shortened and sleep efficiency increased. All patients reported significant relief or became free of RLS symptoms.
(§1) Following a 2-week baseline period, all patients were treated with cabergoline in an open trial for 12 weeks. Apart from levodopa, patients had to stop taking any medication known to have positive or negative effect on RLS two weeks before baseline (i.e., other dopamine agonists, benzodiazepines, opioids or other psychotropic agents). Patients who were on levodopa therapy were allowed to either stop levodopa prior to study entry or to continue, taper or discontinue levodopa during the study. To prevent well known peripheral dopaminergic side-effects such as nausea, vomiting, vertigo and arterial hypotension domperidone (not available in the United States) was comedicated initially and also tapered if possible. […] Neurological case history, examination, electrocardiogramm, chest x-ray and polysomnography were performed to ensure that selection criteria were fulfilled. A two-night PSG (including one night of adaptation) was performed to evaluate the diagnosis and inclusion/exclusion criteria regardless if patients were on or off levodopa. After a 12-week treatment period patients were studied again for one night in the sleep laboratory. Subjective ratings were obtained at baseline, week 4, week 8 and at the endpoint after 12 weeks. In addition patients were monitored by phone calls to note any adverse events and to determine whether to increase the dosage of the study drug, to decrease levodopa and to decrease domperidone. The time schedule of phone calls was variable and the frequency mostly dependent on the presence of simultaneous levodopa therapy.
Inclusion criteria. Patients were included if they fulfilled the minimal diagnostic criteria according to the International RLS Study Group. After rating clinical symptoms at baseline, patients were referred to polysomnography without any RLS specific treatment other than levodopa. Patients were included if they had more than five PLM per hour of time-in-bed (PLM index) and a sleep efficiency index (total sleep time per hour time-in-bed) of less than 85%.
Exclusion criteria. Patients with signs of any other sleep disorder on PSG, especially sleep apnea syndrome (respiratory disturbances index > 5 per hour total sleep time), were excluded. Subjects receiving neuroleptic, antidepressant or other psychotropic medications or with any severe additional illness (with special consideration to pulmonary fibrosis) or drug abuse were also excluded. […]

restless legs syndrome [5] = experiment: 12-week open label pilot trial: patients' subjective ratings and sleep diaries; format: in vivo
Protocol: as §1
Dosing. Study medication was available in tablets containing 0.5 mg, 1 mg or 2 mg Cabergoline (Cabaseril®, Pharmacia & Upjohn, Erlangen, Germany). Medication was taken 2 hours prior to bedtime. Initial therapy consisted of one 0.5 mg tablet. […] The increased dose could be decreased again if necessary. All patients were initially comedicated with domperidone 20 mg t.i.d. which could be tapered and stopped if possible. Subjects who were pretreated with levodopa were asked to decrease levodopa simultaneously if possible.
Subjective ratings. After each night of recording and at each visit at week 2 and 4, patients rated the severity of illness (normal to extremely ill), the therapeutic effects by rating their global improvements by use of the Patients Global Impressions (general condition very much worse to very much better), the severity of RLS symptoms during the time of falling asleep, during the night and during the day (scale: 0 = not present to 10 = very strong) and sleep satisfaction (very unsatisfied to very satisfied). In addition patients rated their quality of life, concerning well being and complaints during the previous week, using modified 50-mm Hamburger Visual Analogue Scale. Patients also filled in a sleep diary at each study visit rating the following symptoms: global assessment of sleep (very bad to very good night), sleep latency, sleep time, frequency of awakenings and urge to move the legs at time falling asleep, during the night and during the day (scale: 0 = not present to 10 = very strong).

restless legs syndrome [6] = experiment: 12-week open label pilot trial: physician's rating (Clinical Global Impressions); format: in vivo; details: under cabergoline, 9 patients
Protocol: as §1, with “Subjective ratings were obtained at baseline, week 4, week 8 and at the endpoint after 12 weeks.” left out, “The time schedule of phone calls was variable and the frequency mostly dependent on the presence of simultaneous levodopa therapy.” left out

restless legs syndrome [7] = experiment: 12-week open label pilot trial: safety and augmentation; format: in vivo, patients
Protocol: as §1
Safety. Safety of Cabergoline was assessed to the type and frequency of adverse event, clinically significant changes in laboratory data or ECG and premature discontinuation of study participation. Adverse events were classified as serious versus nonserious and characterized by intensity, relationship to drug treatment, frequency, course and therapeutic intervention.

[8] = Half-life and duration of action; format: in vivo; details: as stated by the applicant, no method given

Which “patients reporting better subjective improvement in restlessness and paresthesia compared to placebo” value (restless leg syndrome) does the source give for `CC(C)C[C@H]1C(=O)N2CCC[C@H]2[C@]2(O)O[C@](NC(=O)[C@@H]3C=C4c5cccc6[nH]c(Br)c(c56)C[C@H]4N(C)C3)(C(C)C)C(=O)N12` [Bromocriptine] here?
The value was 5 of 6.

And the side effects reported (restless leg syndrome)?
The side effects reported was “transient nasal stuffiness and lightheadedness in one patient”.

For `N[C@@H](Cc1ccc(O)c(O)c1)C(=O)O` [L-dopa], which “RLS patients with augmentation who required a medication change” value (RLS [1]; Allen, Earley, Sleep 1996) is on record?
Its value is 50%.

And the “augmentation in PLMS patients” value (RLS [1]; Allen, Earley, Sleep 1996)?
The value was 31%.

And the “augmentation in RLS patients” value (RLS [1]; Allen, Earley, Sleep 1996)?
The value was 82%.

And the “RLS patients with augmentation reporting 3 major symptoms of increased severity” value (RLS [1]; of the 22 RLS patients with augmentation)?
The value was 100%.

And the patients who responded [2]?
The patients who responded was 21 of 51.

For `CCCN1C[C@H](CSC)C[C@@H]2c3cccc4[nH]cc(c34)C[C@H]21` [Permax®, pergolide mesylate], which “people who develop augmentation” value (RLS [3]) is on record?
The value was 10%.

Which PLM arousal (restless legs syndrome [4]; Week 12, baseline 51.7 ± 42.3) does the source give for `C=CCN1C[C@H](C(=O)N(CCCN(C)C)C(=O)NCC)C[C@@H]2c3cccc4[nH]cc(c34)C[C@H]21` [cabergoline, 1((6-allylergolin-8β-yl) -carbony.)-1-(3-(dimethylamino)propyl)-3-ethylurea] here?
The PLM arousal was 6.4 ± 11.2.

And the PLM arousal index (restless legs syndrome [4]; number of PLM arousals per hour total sleep time, Week 12, baseline 10.4 ± 7.8)?
Its PLM arousal index is 1.0 ± 1.7.

What about the PLM awakening (restless legs syndrome [4]; number of PLM awakenings, Week 12, baseline 9.6 ± 4.9) of the same molecule?
Its PLM awakening is 1.0 ± 2.0.

What about the PLM index (restless legs syndrome [4]; number of PLM per hour time in bed, Week 12, baseline 27.7 ± 17.1) of the same molecule?
The PLM index was 3.6 ± 5.3.

What about the “No. Of PLM” value (restless legs syndrome [4]; total number of PLM during time in bed, Week 12, cabergoline monotherapy, baseline 195.8 ± 109.1) of the same molecule?
The value was 26.4 ± 40.2.

And the “relief of RLS symptoms reported by patients” value (restless legs syndrome [5]; 12 weeks, 9 patients)?
Its value is “All patients reported a significant relief or became free of RLS symptoms”.

And the “severity of illness in PGI (number of patients)” value (restless legs syndrome [5]; cabergoline monotherapy, 9 patients, baseline extremely (2), very (4) or markedly (3) ill)?
The value was “normal (5) or borderline (2) in PGI, only two as moderately ill”.

What about the “quality of life (Hamburger Visual Analogue Scales)” value (restless legs syndrome [5]; compared with baseline) of the same molecule?
The value was “much better than under baseline conditions”.

And the “sleep satisfaction (number of patients)” value (restless legs syndrome [5]; endpoint, 9 patients, baseline very (1), markedly (6) or moderately (2) unsatisfied)?
The value was 2 were very, 4 markedly, 1 moderately satisfied and only 2 moderately unsatisfied.

And the “had to get up” value (restless legs syndrome [5]; sleep diaries, cabergoline monotherapy, baseline 2.1)?
Its value is 0.6 times per night.

And the “General condition in PGI (number of patients)” value (restless legs syndrome [5]; under cabergoline, 9 patients)?
The value was “very much better (6) or much better (3)”.

And the “global quality of the previous night (sleep diaries)” value (restless legs syndrome [5]; zero (very bad) to 10 (very good) scale, endpoint, baseline 3.1)?
Its value is 6.9.

What about the “Physician's rating of general condition (global improvement, number of patients)” value (restless legs syndrome [6]) of the same molecule?
The value was “very much better in 5, much better in 3 and minimally better in 1 patients”.

What about the augmentation under cabergoline (restless legs syndrome [7]; 12-week treatment period) of the same molecule?
The augmentation under cabergoline was “we did not observe augmentation in our patients”.

And the “laboratory data and ECG” value (restless legs syndrome [7]; 12 weeks)?
The value was “No significant changes”.

And the “adverse events probably related to the study drug, total” value (restless legs syndrome [7]; 12 weeks, 9 patients)?
The value was 8.

And the “serious side effects and withdrawals” value (restless legs syndrome [7]; 12 weeks, 9 patients)?
Its value is “no serious side effects and no patient withdrew from the study”.

What about the “patients reporting adverse events probably related to the study drug” value (restless legs syndrome [7]; of 9 patients) of the same molecule?
The value was 5 patients.

And the “reversibility of augmentation evoked by levodopa” value (restless legs syndrome [7]; patients who had developed augmentation under levodopa)?
The value was “reversible under cabergoline in all of our patients”.

And the half life [8]?
Its half life is greater than 65 h.

And the half-life ([8]; human, in vivo)?
Its half-life is 65 h.

Which patients who responded [2] does the source give for `CCCN1C[C@H](CSC)C[C@@H]2c3cccc4[nH]cc(c34)C[C@H]21` [Pergolide] here?
Its patients who responded is 19 of 26.

And the “patients who suffered from augmentation” value ([2]; patients treated with pergolide)?
Its value is 15%.

And the “patients who had augmentation” value ([2]; pergolide patients)?
Its value is 4 of 26.
